Laboratory results taken from US20220323433A2, “CLINICAL REGIMEN FOR TREATING MYELODYSPLASTIC SYNDROME WITH PHOSPHATASE INHIBITOR” (H. Lee Moffitt Cancer Center and Research Institute, Inc., priority 2016, published 2022).
Where two headings read alike, the source gives them in different places.

Experiments:
[1] = Solubility and stability of LB-100 solution; format: physicochemical; settings: for stability: formulated in monosodium glutamate
Text: LB-100 is a water soluble enantiomeric zwitterion provided as a sterile solution for intravenous administration.
Phosphate buffered saline (PBS) was used as the vehicle for LB-100 administration in preclinical efficacy studies and sodium bicarbonate 4.2% for injection was used as the vehicle for GLP toxicity studies.

beagle dogs = assay: Non-GLP dose ranging study in dogs, IV every 4 days x 4 doses; format: in vivo, dog
Text: Single cell necrosis was observed throughout the gastrointestinal tract.

solid tumors = settings: human, in vivo
[2] = system: male and female beagle dogs
Experimental: In the GLP repeat dose dog study, LB-100 was administered by intravenous injection (slow bolus push) at dose levels of 0.15, 0.30, and 0.75 mg/kg daily for 5 consecutive days. […] The dosage level was reduced to 0.50 mg/kg/day for the 4th and 5th doses (study Days 3 and 4).
Multilead (I, II, III, aVR, aVL, aVF, and V2) ECGs were recorded for all animals prior to randomization (Day−8) and for all surviving animals on Day 4 (recorded approximately 2 to 4 hours following dose administration) and Day 27.
Blood pressure (systolic, diastolic, and mean arterial pressure) data were recorded for all animals once during the pretest period (Day−8) and for all surviving animals on study Day 4 (recorded approximately 2 to 4 hours following dose administration) and Day 27.

male Fischer rats = assay: Non-GLP dose ranging toxicology study in rats, daily IV infusion for 4 days; settings: for MTD: male Fischer rats, IV daily for 4 days
Experimental: In a non-GLP dose ranging study in male Fischer rats, LB-100 was administered by daily intravenous (IV) infusion at 0.5, 0.75 and 1.5 mg/kg/day for 4 consecutive days.

[3] = system: male and female Sprague Dawley rats; assay: GLP repeat-dose study in rats, daily IV slow bolus for 5 days; settings: for C0 / AUClast: 0.75 mg/kg/day
del(5q) MDS = settings: cited from earlier work; for median overall survival: long term follow up
del(5q) clones = settings: del(5q) patients; cited from earlier work
[4] = MDS-003 multicenter Phase 2 trial

With `CN1CCN(C(=O)C2C(C(=O)O)[C@H]3CC[C@@H]2O3)CC1` (mixture of isomers) [LB-100, 3-{4methylpiperazine-carbonyl}-7-oxalobicyclo[2.2.1]heptane-2-carboxylic acid] the water solubility [1] was “water soluble”, the stability ([1]; pH 10.5, at refrigerated temperatures) was “at least 8 hours” and the stability ([1]; pH 10.5, at −20° C.) was “stable for months”. The “racemization of separated enantiomers” value ([1]; in solution) was “racemize rapidly in solution”, the survival (beagle dogs; 0.1, 0.25, 0.5, 1.0 mg/kg) was “no LB-100-related effects on survival” and the “no observed-effect level (NOEL)” value (beagle dogs; beagle dogs, IV every 4 days x 4 doses) was 0.25 mg/kg. The signs of toxicity (beagle dogs; dog, in vivo, 1 mg/kg) was “almost no signs of toxicity”, the “cardiac or myelosuppressive toxicities” value (solid tumors) was “no cardiac or myelosuppressive toxicities observed” and the dose limiting toxicities (solid tumors) was “no dose limiting toxicities”. The “plasma concentrations of LB-100” value (solid tumors) was “greater than 1 μM”, the tolerability (solid tumors) was “well tolerated” and the tolerability ([2]; 0.15 mg/kg/day) was “well tolerated”. For the same compound, the test article-related lethality ([2]; 0.75 mg/kg/day group, prior to fourth dose) was 2 of 10, the “Highest Non-Severely Toxic Dose (HNSTD)” value ([2]; beagle dogs, IV daily for 5 consecutive days) was 0.15 mg/kg and the ECGs ([2]; dog, in vivo) was “within normal limits”. The blood pressure ([2]; dog, in vivo) was “unaffected”, the “hematology or coagulation parameters” value ([2]; dog, in vivo) was “no residual effects” and the urinalysis parameters ([2]; dog, in vivo) was “no test article-related changes”. For the same compound, the nephrosis severity (male Fischer rats; 0.75 mg/kg/day) was “mild”, the “no-observed-adverse-effect-level (NOAEL)” value (male Fischer rats; 0.5, 0.75 and 1.5 mg/kg/day IV for 4 days) was “not established” and the heart toxicity (male Fischer rats; 0.75 and 1.5 mg/kg/day groups) was “epicardial hyperplasia with inflammation primarily on the epicardium of the atria”. The unscheduled deaths (male Fischer rats; any of the treatment groups (0.5, 0.75, 1.5 mg/kg/day)) was “no unscheduled deaths”, the MTD (male Fischer rats) was 0.75 mg/kg/day and the MTD (male Fischer rats; surface area equivalent) was “about 4.5 mg/m^2”. The dose-limiting toxicities (male Fischer rats; rat, in vivo, iv) was “Kidney, heart, femoral bone, liver and urinary bladder toxicity”, the C0 ([3]; females, study Day 4) was 2347 ng/mL and the AUClast ([3]; males, study Day 4) was 596 ng·h/mL. For the same compound, the C0 ([3]; males, study Day 4) was 1804 ng/mL, the “heart findings (epicardium and subepicardium of the atrium)” value ([3]; 0.5, 0.75, 1.25 mg/kg/day males and 1.25 mg/kg/day females) was “Minimal to mild subacute inflammation” and the kidney findings ([3]; 0.75 and 1.25 mg/kg/day group males and females) was “adverse, test article-related nephrosis of the kidneys”. For the same compound, the “severely toxic dose in 10% of the animals (STD 10)” value ([3]; Sprague Dawley rats, IV slow bolus daily for 5 days) was 0.75 mg/kg/day, the “reversibility of effects on urinalysis parameters” value ([3]; all treatment groups) was “reversible” and the AUClast ([3]; female, Sprague Dawley, rat, in vivo, iv) was 691 ng·h/mL.
For `Nc1cccc2c1CN(C1CCC(=O)NC1=O)C2=O` (stereo not shown) [lenalidomide], the “patients achieving a complete response (CR)” value (del(5q) MDS; MDS-003, cytogenetic response) is listed as 45%, the “patients with at least a partial cytogenetic response” value (del(5q) MDS; MDS-003) is listed as 73% and the “median TI duration” value (del(5q) MDS; [4]) is listed as 2.2 years. For the same compound, the “patients achieved transfusion independence (TI)” value (del(5q) MDS; [4]) was 67%, the “patients who develop resistance” value (del(5q) MDS; after 2-3 years of treatment) was “approximately 50%” and the median overall survival (del(5q) MDS; cytogenetic non-responders) was 3.1 years. For the same compound, the median overall survival (del(5q) MDS; cytogenetic responders) was 4.9 years, the median overall survival (del(5q) MDS; non-responders (TI)) was 2 years and the median overall survival (del(5q) MDS; patients who reached TI) was 4.3 years. The “median duration of TI” value (del(5q) MDS; patients with PP2Acα suppression from baseline, not reached) was no less than 1507 days, the “median duration of responses” value (del(5q) MDS; patients with del5q MDS) was 2.5 years and the “median duration of TI” value (del(5q) MDS; patients without PP2Acα suppression (P=0.006, log rank)) was 679 days. For the same compound, the “apoptosis and cell cycle arrest” value (del(5q) clones) was “induces apoptosis and cell cycle arrest”.
